This is an account of results in patent US10494341B2, “Compound containing indoleacetic acid core structure and use thereof” (Beijing An Jian Xi Bio-Medical Technology Co., Ltd., priority 2015, dated 2019).

In series [1] the test system is colon cancer cells (SW480). Particulars: SW480 tumors in nude mice. As for the experimental part: The experiment was carried out using compound a in this example. Under sterile conditions, a suspension of colon cancer cells (SW480) in logarithmic growth phase (cell concentration was adjusted to 1×10^7/mL with physiological saline) was inoculated subcutaneously to 5 to 6 weeks old balb/c female nude mice on the right rear back, and each nude mice was inoculated at an amount of 0.3 ml, i.e. the number of cells contained was 3×10^6 per each mouse. 10 days later, subcutaneous transplanted tumor of 100-250 mm^3 appeared. The nude mice with tumor were randomly divided into several groups, each containing 6 mice: (1) control group; (2) doxorubicin group; (3) doxorubicin+amifostine; (4) doxorubicin+Celecoxib+intermediate II; (5) doxorubicin+intermediate I+intermediate II; (6) doxorubicin+low-dose compound a (6 mg/kg/day); (7) doxorubicin+high-dose compound a (15 mg/kg/day). Firstly, the following compounds were administered to each group of nude mice with tumor according to the following doses: intermediate I and intermediate II (3 mg/kg/day respectively), amifostine (400 mg/kg/day), Celecoxib (6 mg/kg/day). Except that amifostine was subcutaneously injected (30 minutes before irradiation), the other protective agents were administered by gavage. The above drugs were administered every day for 5 weeks continuously. 12 hours after the administration, doxorubicin (2.5 mg/kg) was injected intraperitoneally, and it was administered once every 2 days for 5 weeks. During the dosing period, the body weight of the nude mice was measured every two days with a precision electronic balance. The growth of the tumor and whether or not red and swelling and rupture occur were observed every day after inoculation. After tumor formation, the surface morphology and activity of the transplanted tumor were examined, and the longest diameter (a) and the shortest diameter (b) of the tumor nodules were measured every 3 days with a vernier caliper. […] 21 days after administration of doxorubicin, the tail vein blood of mice was collected to perform leukocyte count and blood biochemical index analysis. The tumor tissue and normal peripheral tissues were taken on the last day of treatment, and the content of the intermediate I therein was measured by HPLC (FIG. 9a). At the same time, paraffin sections were made, the occurrence of apoptosis was detected by terminal labeling (FIG. 9b), and the relative survival percentages of normal tissue and tumor tissue were calculated (the results are summarized in FIG. 9b).

The nature of series [2]: Content of active components in tumor tissue and normal peripheral tissue (HPLC). In kind it is in vivo. Particulars: last day of treatment. As for the experimental part:
The experiment was carried out using compound a in this example. Under sterile conditions, a suspension of colon cancer cells (SW480) in logarithmic growth phase (cell concentration was adjusted to 1×10^7/mL with physiological saline) was inoculated subcutaneously to 5 to 6 weeks old balb/c female nude mice on the right rear back, and each nude mice was inoculated at an amount of 0.3 ml, i.e. the number of cells contained was 3×10^6 per each mouse. 10 days later, subcutaneous transplanted tumor of 100-250 mm^3 appeared. […] During the dosing period, the body weight of the nude mice was measured every two days with a precision electronic balance. […] After tumor formation, the surface morphology and activity of the transplanted tumor were examined, and the longest diameter (a) and the shortest diameter (b) of the tumor nodules were measured every 3 days with a vernier caliper. […] The tumor tissue and normal peripheral tissues were taken on the last day of treatment, and the content of the intermediate I therein was measured by HPLC (FIG. 9a). At the same time, paraffin sections were made, the occurrence of apoptosis was detected by terminal labeling (FIG. 9b), and the relative survival percentages of normal tissue and tumor tissue were calculated (the results are summarized in FIG. 9b).

Series [3] is described as follows: Metabolic kinetics in mice after gavage (plasma level of intermediate II). In kind it is in vivo. The procedure:
Metabolic kinetics of the compound a in mice: the compound a and the intermediate II were administered to mice respectively by gavage at a dose of 25 mg/kg each time and 12 mg/kg each time (equimolar concentration). Equal volume of blood samples were collected at the time points of 1, 3, 5, 9, 18 and 24 hours, and centrifuged immediately. 100 μL of supernatant (plasma) was got, added with 2-fold volume of acetonitrile immediately to extract the blood samples twice, and centrifuged at high speed (12,000 rpm) for 5 minutes. The level of the intermediate II in the organic phase was determined by HPLC, and the content of the compound fragments was detected by LC-MS. Pharmacokinetics was analyzed by Pharmacokinetics Solutions 2.0 software (Summit Research Services, Montrose, Colo., USA).

Where [4] appears, read: gavage, compound a 25 mg/kg, intermediate II 12 mg/kg (equimolar), intermediate II measured in plasma.

Regarding `COC1=C(OC)C(=O)C(CCCCCCCCCCOC(=O)Cc2c(C)n(C(=O)c3ccc(Cl)cc3)c3cc(OC)ccc23)=C(C)C1=O` [compound a], in series [1] (doxorubicin 2.5 mg/kg i.p. every 2 days for 5 weeks, agents daily), the “effect on tumor / on sensitivity of tumor to doxorubicin” value is reported as “significantly enhance the sensitivity of tumor cells to chemotherapy”. In addition, the “death of animals during treatment” value in series [1] (doxorubicin 2.5 mg/kg i.p., 6 mice per group) is on record as “No death occurs”. Moreover, the “protection of normal tissue and cells from doxorubicin” value in series [1] (with doxorubicin) was “effective in inhibiting the killing effect of Doxorubicin on normal leukocytes, cardiomyocytes and peripheral normal tissues around the tumor”. In addition, the “content of active components in tumor tissues versus peripheral normal tissues” value in series [2] is reported as “evidently higher”. Also, in series [3] (gavage 25 mg/kg), the “content of intermediate II in plasma, versus mice given intermediate II” value was “significantly higher” and the “metabolites in plasma” value is listed as “significantly reduced”. Further, in series [3] (setting [4]), the AUC0 was 63200 ng·h/mL, the highest concentration (Cmax) turned out to be 19800 ng/mL, the T1/2 is on record as 7.6 h and the Tmax was 5 h.
